The values below come from patent publication US10227346B2, “Methyl- and trifluoromethyl-substituted pyrrolopyridine modulators of RORC2 and methods of use therof” (Pfizer Inc., priority 2014, dated 2019).

One may read the IC50 as the concentration that gives 50% inhibition. Lower therefore signals greater potency.

This experiment has as its system IL-17 production from human Th17 cells. The experiment is described as follows: IL-17 production from human Th17 cells.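 Also: purified human CD4+ T cells activated with anti-CD3 plus anti-CD28 and a Th17-inducing cytokine cocktail, with compound at serial concentrations versus no compound.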 The experiment is classed as cell-based. The note with it: IL-17A in supernatant by ELISA after 6 days, human CD4+ T cells under Th17 differentiation. (ELISA stands for enzyme-linked immunosorbent assay.)

`Cn1cc([C@@H]2CCN(C(=O)C3CCCC3)C(C)(C)C2)c2c(C(F)(F)F)c(NC(=O)c3cccc(C#N)c3)cnc21` [Example 65, (R)-3-cyano-N-(3-(1-(cyclopentanecarbonyl)-2,2-dimethylpiperidin-4-yl)-1-methyl-4-(trifluoromethyl)-1H-pyrrolo[2,3-b]pyridin-5-yl)benzamide] came in with an IC50 of 10.7 nM. As for `COc1ccc(C(=O)Nc2cnc3c(c(C4CCN(C(=O)C(C)C)CC4)cn3C)c2C)cc1C#N` [Example 110, 3-cyano-N-(3-(1-isobutyrylpiperidin-4-yl)-1,4-dimethyl-1H-pyrrolo[2,3-b]pyridin-5-yl)-4-methoxybenzamide], the IC50 was 24.7 nM. For `COc1ccc(C(=O)Nc2cnc3c(c(C4CCN(C(=O)C(C)C)CC4)cn3C)c2C(F)(F)F)cc1Cl` [Example 10, 3-chloro-N-(3-(1-isobutyrylpiperidin-4-yl)-1-methyl-4-(trifluoromethyl)-1H-pyrrolo[2,3-b]pyridin-5-yl)-4-methoxybenzamide] the value was 51.3 nM; for `Cc1c(NC(=O)c2cc(O)cc(C#N)c2)cnc2c1c([C@@H]1CCN(C(=O)C3CCCC3)C(C)(C)C1)cn2C` [Example 64, (R)-3-cyano-N-(3-(1-(cyclopentanecarbonyl)-2,2-dimethylpiperidin-4-yl)-1,4-dimethyl-1H-pyrrolo[2,3-b]pyridin-5-yl)-5-hydroxybenzamide], 10.2 nM; for `Cc1c(NC(=O)c2cc(O)cc(C#N)c2)cnc2c1c(C1CCN(C(=O)[C@H](C)C(C)(C)C)CC1)cn2C` [Example 56, (R)-3-cyano-N-(1,4-dimethyl-3-(1-(2,3,3-trimethylbutanoyl)piperidin-4-yl)-1H-pyrrolo[2,3-b]pyridin-5-yl)-5-hydroxybenzamide], 4.9 nM.

In turn, `Cn1cc(C2CCN(C(=O)CC3CCC3)CC2)c2c(C(F)(F)F)c(NC(=O)c3cccc(C#N)c3)cnc21` [Example 18, 3-cyano-N-(3-(1-(2-cyclobutylacetyl)piperidin-4-yl)-1-methyl-4-(trifluoromethyl)-1H-pyrrolo[2,3-b]pyridin-5-yl)benzamide] returned an IC50 of 10.8 nM.

In turn, `Cc1c(NC(=O)c2cccc(C#N)c2)cnc2c1c([C@H]1C[C@H](C)N(C(=O)C3CCCC3)C[C@H]1C)cn2C` (relative stereo) [Example 97, rel-3-cyano-N-(3-((2S,4S,5S)-1-(cyclopentanecarbonyl)-2,5-dimethylpiperidin-4-yl)-1,4-dimethyl-1H-pyrrolo[2,3-b]pyridin-5-yl)benzamide] showed a half-maximal inhibitory concentration (IC50) of 124 nM.

For the compound `Cn1cc(C2[C@@H]3CC[C@H]2CN(C(=O)C2CCCC2)C3)c2c(C(F)(F)F)c(NC(=O)c3cccc(C#N)c3)cnc21` (stereo partly drawn) [Example 79, 3-cyano-N-{3-((1R,5S,8r)-3-(cyclopentanecarbonyl)-3-azabicyclo[3.2.1]octan-8-yl]-1-methyl-4-(trifluoromethyl)-1H-pyrrolo[2,3-b]pyridin-5-yl}benzamide], the IC50 was 4.1 nM. Take `CC(C)C(=O)N1C[C@H]2CC[C@@H](C1)[C@@H]2c1cn(C)c2ncc(NC(=O)c3cccc(C#N)c3)c(C(F)(F)F)c12` [Example 77, 3-cyano-N-(3-((1R,5S,8r)-3-isobutyryl-3-azabicyclo[3.2.1]octan-8-yl)-1-methyl-4-(trifluoromethyl)-1H-pyrrolo[2,3-b]pyridin-5-yl)benzamide]: the IC50 came out at 8.9 nM. Against the preceding compound, the IC50 is about 2.2-fold higher.

In turn, `Cc1c(NC(=O)c2cccc(C#N)c2)cnc2c1c(C1CCN(C(=O)[C@H](C)C34CC(C3)C4)CC1)cn2C` [Example 50, (R)—N-(3-(1-(2-(bicyclo[1.1.1]pentan-1-yl)propanoyl)piperidin-4-yl)-1,4-dimethyl-1H-pyrrolo[2,3-b]pyridin-5-yl)-3-cyanobenzamide] displayed an IC50 of 3.4 nM. With `COc1cc(Cl)cc(C(=O)Nc2cnc3c(c([C@@H]4CCN(C(=O)C(C)C)C(C)(C)C4)cn3C)c2C)c1` [Example 62, (R)-3-chloro-N-(3-(1-isobutyryl-2,2-dimethylpiperidin-4-yl)-1,4-dimethyl-1H-pyrrolo[2,3-b]pyridin-5-yl)-5-methoxybenzamide] the figure was 15.8 nM; with `Cc1c(NC(=O)c2cccc(C#N)c2)cnc2c1c(C1CCN(C(=O)CC(C)C)CC1)cn2C` [Example 109, 3-cyano-N-(1,4-dimethyl-3-(1-(3-methylbutanoyl)piperidin-4-yl)-1H-pyrrolo[2,3-b]pyridin-5-yl)benzamide], 32.1 nM; with `Cc1c(NC(=O)c2cccc(C#N)c2)cnc2c1c([C@@H]1CCN(C(=O)C(C)C)[C@@H](C)C1)cn2C` [Example 113, 3-cyano-N-(3-((2S,4R)-1-isobutyryl-2-methylpiperidin-4-yl)-1,4-dimethyl-1H-pyrrolo[2,3-b]pyridin-5-yl)benzamide], 29.8 nM. For `Cc1c(NC(=O)c2ccc(F)c(C#N)c2)cnc2c1c([C@@H]1CCN(C(=O)C3CCCC3)C(C)(C)C1)cn2C` [Example 61, (R)-3-cyano-N-(3-(1-(cyclopentanecarbonyl)-2,2-dimethylpiperidin-4-yl)-1,4-dimethyl-1H-pyrrolo[2,3-b]pyridin-5-yl)-4-fluorobenzamide] the value was 25.6 nM; for `COc1cc(C#N)cc(C(=O)Nc2cnc3c(c([C@@H]4CCN(C(=O)C5CCCC5)[C@@H](C)C4)cn3C)c2C)c1` [Example 90, 3-cyano-N-(3-((2S,4R)-1-(cyclopentanecarbonyl)-2-methylpiperidin-4-yl)-1,4-dimethyl-1H-pyrrolo[2,3-b]pyridin-5-yl)-5-methoxybenzamide], 12.2 nM.

`COc1cc(Cl)cc(C(=O)Nc2cnc3c(c([C@@H]4CCN(C(=O)C5CCCC5)C(C)(C)C4)cn3C)c2C)c1` [Example 63, (R)-3-chloro-N-(3-(1-(cyclopentane-carbonyl)-2,2-dimethylpiperidin-4-yl)-1,4-dimethyl-1H-pyrrolo[2,3-b]pyridin-5-yl)-5-methoxybenzamide] had an IC50 of 12 nM. With `C[C@@H](C(=O)N1CCC(c2cn(C)c3ncc(NC(=O)c4cc(O)cc(C#N)c4)c(C(F)(F)F)c23)CC1)C(C)(C)C` [Example 54, (R)-3-cyano-5-hydroxy-N-(1-methyl-4-(trifluoromethyl)-3-(1-(2,3,3-trimethylbutanoyl)piperidin-4-yl)-1H-pyrrolo [2,3-b]pyridin-5-yl)benzamide] the figure was 5 nM; with `Cc1c(NC(=O)c2cccc(C#N)c2)cnc2c1c(C1CCN(C(=O)[C@H]3CCC[C@@H]3C)CC1)cn2C` (single isomer, unassigned) [Example 46], 57.4 nM. `Cc1c(NC(=O)c2cccc(C#N)c2)cnc2c1c(C1CCN(C(=O)[C@@H]3CCC[C@@H]3C(C)C)CC1)cn2C` (single isomer, unassigned) [Example 48] returned a half-inhibitory concentration (IC50) of 13.4 nM. With `CC(C)C(=O)N1CCC(c2cn(C)c3ncc(NC(=O)c4ccc(F)c(C#N)c4)c(C(F)(F)F)c23)CC1` [Example 9, 3-cyano-4-fluoro-N-(3-(1-isobutyrylpiperidin-4-yl)-1-methyl-4-(trifluoromethyl)-1H-pyrrolo[2,3-b]pyridin-5-yl)benzamide] the figure was 27.5 nM; with `Cc1c(NC(=O)c2cccc(C#N)c2)cnc2c1c(C1CCN(C(=O)[C@@H]3CCC[C@H]3C)CC1)cn2C` (single isomer, unassigned) [Example 47], 8.4 nM; with `Cc1c(NC(=O)c2cccc(C#N)c2)cnc2c1c(C1CCN(C(=O)[C@H](C)C(C)C)CC1)cn2C` [Example 37, (R)-3-cyano-N-(3-(1-(2,3-dimethylbutanoyl)piperidin-4-yl)-1,4-dimethyl-1H-pyrrolo[2,3-b]pyridin-5-yl)benzamide], 9.2 nM. `Cc1cccc(F)c1C(=O)N1CCC(c2cn(C)c3ncc(NC(=O)c4cccc(C#N)c4)c(C)c23)CC1` [Example 33, 3-cyano-N-(3-(1-(2-fluoro-6-methylbenzoyl)piperidin-4-yl)-1,4-dimethyl-1H-pyrrolo[2,3-b]pyridin-5-yl)benzamide] registered an IC50 of 13.7 nM. In turn, `Cn1cc(C2CCN(C(=O)C3CCCC3)CC2)c2c(C(F)(F)F)c(NC(=O)c3ccc(F)c(C#N)c3)cnc21` [Example 3, 3-cyano-N-(3-(1-(cyclopentanecarbonyl)piperidin-4-yl)-1-methyl-4-(trifluoromethyl)-1H-pyrrolo[2,3-b]pyridin-5-yl)-4-fluorobenzamide] returned an IC50 of 39.2 nM.

As for `CC(C)C(=O)N1CCC(c2cn(C)c3ncc(NC(=O)c4cccc(C#N)c4)c(C(F)(F)F)c23)CC1` [Example 5, 3-cyano-N-(3-(1-isobutyrylpiperidin-4-yl)-1-methyl-4-(trifluoromethyl)-1H-pyrrolo[2,3-b]pyridin-5-yl)benzamide], the IC50 is 9.5 nM.

Compound `Cc1c(NC(=O)c2cccc(C#N)c2)cnc2c1c([C@@H]1CCN(C(=O)CC3CCCC3)C(C)(C)C1)cn2C` [Example 74, (R)-3-cyano-N-(3-(1-(2-cyclopentylacetyl)-2,2-dimethylpiperidin-4-yl)-1,4-dimethyl-1H-pyrrolo[2,3-b]pyridin-5-yl)benzamide] came in with an IC50 of 3.6 nM.

For the compound `Cc1c(NC(=O)c2cccc(C#N)c2)cnc2c1c(C1CCN(C(=O)[C@@H]3CCCC3C(C)C)CC1)cn2C` (stereo in doubt) [Example 49, 3-cyano-N-(3-(1-((1R,2R)-2-isopropylcyclopentane-1-carbonyl)piperidin-4-yl)-1,4-dimethyl-1H-pyrrolo[2,3-b]pyridin-5-yl)benzamide], the IC50 was 8 nM. `Cc1c(NC(=O)c2cccc(C#N)c2)cnc2c1c([C@@H]1CCN(C(=O)CC3CCC3)C(C)(C)C1)cn2C` [Example 76, (R)-3-cyano-N-(3-(1-(2-cyclobutylacetyl)-2,2-dimethylpiperidin-4-yl)-1,4-dimethyl-1H-pyrrolo[2,3-b]pyridin-5-yl)benzamide] returned a concentration for half-maximal inhibition (IC50) of 5 nM. Compound `COc1cc(Cl)cc(C(=O)Nc2cnc3c(c(C4CCN(C(=O)C(C)C)CC4)cn3C)c2C(F)(F)F)c1` [Example 13, 3-chloro-N-(3-(1-isobutyrylpiperidin-4-yl)-1-methyl-4-(trifluoromethyl)-1H-pyrrolo[2,3-b]pyridin-5-yl)-5-methoxybenzamide] registered a 50% inhibitory concentration (IC50) of 48.7 nM.
